Data reported in patent publication US9302999B2, “Substituted triazoles as herbicides” (E. I. DU PONT DE NEMOURS AND COMPANY, priority 2012, dated 2016).
Where two headings read alike, the source gives them in different places.

Experiments:
Assay type in all cases: in vivo
[1] = test system: blackgrass (Alopecurus myosuroides); assay: Test C pre-/postemergence: blackgrass
Excerpt: (§1) Seeds of plant species selected from blackgrass (Alopecurus myosuroides), bromegrass, downy (downy bromegrass, Bromus tectorum), foxtail, green (green foxtail, Setaria viridis), ryegrass, Italian (Italian ryegrass, Lolium multiflorum), winter wheat (Triticum aestivum), wild oat (Avena fatua), galium (catchweed bedstraw, Galium aparine), bermudagrass (Cynodon dactylon), surinam grass (Brachiaria decumbens), cocklebur (common cocklebur, Xanthium strumarium), corn (Zea mays), large crabgrass (Digitaria sanguinalis), woolly cupgrass (Eriochloa villosa), foxtail, giant (giant foxtail, Setaria faberii), goosegrass (Eleusine indica), johnsongrass (Sorghum halepense), kochia (Kochia scoparia), lambsquarters (Chenopodium album), morningglory (Ipomoea coccinea), nightshade (eastern black nightshade, Solanum ptycanthum), nutsedge, yellow (yellow nutsedge, Cyperus esculentus), pigweed (Amaranthus retroflexus), ragweed (common ragweed, Ambrosia elation), soybean (Glycine max), common (oilseed) sunflower (Helianthus annuus), Russian thistle (Salsola kali) and velvetleaf (Abutilon theophrasti) were planted into a blend of loam soil and sand and treated preemergence with test chemicals formulated in a non-phytotoxic solvent mixture which included a surfactant.
(§2) At the same time, plants selected from these crop and weed species and also barley (winter barley, Hordeum vulgare), canarygrass (Phalaris minor), chickweed (common chickweed, Stellaria media) windgrass (Apera spica-venti) and deadnettle (henbit deadnettle, Lamium amplexicaule) were planted in pots containing Redi-Earth® planting medium (Scotts Company, 14111 Scottslawn Road, Marysville, Ohio 43041) comprising spaghnum peat moss, vermiculite, wetting agent and starter nutrients and treated with postemergence applications of test chemicals formulated in the same manner. Plants ranged in height from 2 to 18 cm (1- to 4-leaf stage) for postemergence treatments.
(§3) Treated plants and controls were maintained in a greenhouse for 13 to 15 days, after which time all species were compared to controls and visually evaluated. Plant response ratings, summarized in Table C, are based on a scale of 0 to 100 where 0 is no effect and 100 is complete control. A dash (-) response means no test result.

wild oat (Avena fatua) = assay: Test C pre-/postemergence: wild oat
Excerpt: as §1, §2, §3

[2] = test system: velvetleaf (Abutilon theophrasti); assay: Test A pre-/postemergence: velvetleaf; conditions: Abutilon theophrasti, 240 h; for pest or weed control at 125 g/ha: 125 g ai/ha; for pest or weed control at 500 g/ha: 500 g ai/ha
Outline: (§4)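 Seeds were sown in loam/sand blend and sprayed preemergence (directed soil spray) and, simultaneously, postemergence at 2–10 cm, one- to two-leaf stage, using compounds in non-phytotoxic solvent with surfactant. After ~10 days in greenhouse, injury was rated visually versus untreated controls, 0 (no effect) to 100 (complete control).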

[3] = test system: foxtail, giant (giant foxtail, Setaria faberii); assay: Test A pre-/postemergence: foxtail, giant; conditions: Setaria faberi, 240 h; for pest or weed control at 125 g/ha: 125 g ai/ha; for pest or weed control at 500 g/ha: 500 g ai/ha
Outline: as §4

[4] = test system: morningglory (Ipomoea spp.); assay: Test A pre-/postemergence: morningglory; conditions: Ipomoea, 240 h; for pest or weed control at 500 g/ha: 500 g ai/ha
Outline: as §4

kochia (Kochia scoparia) = assay: Test C pre-/postemergence: kochia; conditions: Postemergence
Excerpt: as §1, §2, §3

[5] = test system: barnyardgrass (Echinochloa crus-galli); assay: Test A pre-/postemergence: barnyardgrass; conditions: Echinochloa crus-galli, 240 h; for pest or weed control at 125 g/ha: 125 g ai/ha; for pest or weed control at 500 g/ha: 500 g ai/ha
Outline: as §4

[6] = test system: pigweed (Amaranthus retroflexus); assay: Test C pre-/postemergence: pigweed; conditions: Postemergence
Excerpt: as §1, §2, §3

[7] = test system: lambsquarters (Chenopodium album); assay: Test C pre-/postemergence: lambsquarters; conditions: Postemergence
Excerpt: as §1, §2, §3

[8] = test system: wheat (Triticum aestivum); assay: Test A pre-/postemergence: wheat; conditions: Triticum aestivum, 240 h; for plant injury at 125 g/ha: 125 g ai/ha; for plant injury at 500 g/ha: 500 g ai/ha
Outline: as §4

[9] = test system: ryegrass, Italian (Italian ryegrass, Lolium multiflorum); assay: Test C pre-/postemergence: ryegrass, Italian
Excerpt: as §1, §2, §3

[10] = test system: large crabgrass (Digitaria sanguinalis); assay: Test C pre-/postemergence: large crabgrass; conditions: Postemergence
Excerpt: as §1, §2, §3

[11] = Postemergence, 31 g ai/ha, scale 0 to 100 (0 no effect, 100 complete control)
[12] = Postemergence, 62 g ai/ha, scale 0 to 100 (0 no effect, 100 complete control)
[13] = Postemergence, 125 g ai/ha, scale 0 to 100, 0 no effect, 100 complete control
[14] = Postemergence, 250 g ai/ha, scale 0 to 100
[15] = Preemergence, 31 g ai/ha, scale of 0 to 100, 0 is no effect, 100 is complete control
[16] = Preemergence, 125 g ai/ha, scale 0 to 100, 0 no effect, 100 complete control
[17] = Preemergence, 250 g ai/ha, scale 0 to 100, 0 no effect, 100 complete control
[18] = Preemergence, 62 g ai/ha, scale of 0 to 100, 0 is no effect, 100 is complete control
[19] = 31 g ai/ha, scale 0 to 100 (0 no effect, 100 complete control)
[20] = 62 g ai/ha, scale 0 to 100 (0 no effect, 100 complete control)
[21] = 125 g ai/ha, scale 0 to 100, 0 no effect, 100 complete control

SMILES: Cc1nn(-c2ccc(F)cc2)nc1Cc1ccnc(C(F)(F)F)c1 [Compound 16, 4-[[2-(4-fluorophenyl)-5-methyl-2H-1,2,3-triazol-4-yl]methyl]-2-(trifluoromethyl)pyridine]
- Plant response rating, Blackgrass [1, 11]: 10
- Plant response rating, Blackgrass [1, 12]: 25
- Plant response rating, Blackgrass [1, 13]: 40
- Plant response rating, Blackgrass [1, 14]: 80
- Plant response rating, Blackgrass [1, 15]: 90
- Plant response rating, Blackgrass ([1]; Preemergence, 62 g ai/ha, scale 0 to 100, 0 no effect, 100 complete control): 100
- Plant response rating, Blackgrass [1, 16]: 100
- Plant response rating, Blackgrass [1, 17]: 100
- Plant response rating, Oat, Wild (wild oat (Avena fatua); [11]): 5
- Plant response rating, Oat, Wild (wild oat (Avena fatua); [12]): 10
- Plant response rating, Oat, Wild (wild oat (Avena fatua); [13]): 20
- Plant response rating, Oat, Wild (wild oat (Avena fatua); [14]): 80
- Plant response rating, Oat, Wild (wild oat (Avena fatua); [15]): 98
- Plant response rating, Oat, Wild (wild oat (Avena fatua); [18]): 100
- Plant response rating, Oat, Wild (wild oat (Avena fatua); [16]): 100
- Plant response rating, Oat, Wild (wild oat (Avena fatua); [17]): 100
- pest or weed control at 125 g/ha ([2]; post-emergence, Postemergence, 0 to 100 scale, 0 is no effect, 100 is complete control, read-out: Velvetleaf plant response rating): 100%
- pest or weed control at 500 g/ha ([2]; post-emergence, Postemergence, visual rating on 0 to 100 scale (0 no effect, 100 complete control), approximately ten days, read-out: Velvetleaf plant response rating): 100%
- pest or weed control at 125 g/ha ([2]; pre-emergence, Preemergence, 0 to 100 scale (0 no effect, 100 complete control), read-out: Plant response rating, Velvetleaf): 30%
- pest or weed control at 500 g/ha ([2]; pre-emergence, Preemergence, 0 to 100 scale, 0 is no effect, 100 is complete control, read-out: Plant response rating, Velvetleaf): 80%
- pest or weed control at 125 g/ha ([3]; post-emergence, Postemergence, 0 to 100 scale, 0 is no effect, 100 is complete control, read-out: Foxtail, Giant plant response rating): 90%
- pest or weed control at 500 g/ha ([3]; post-emergence, Postemergence, visual rating on 0 to 100 scale (0 no effect, 100 complete control), approximately ten days, read-out: Foxtail, Giant plant response rating): 90%
- pest or weed control at 125 g/ha ([3]; pre-emergence, Preemergence, 0 to 100 scale (0 no effect, 100 complete control), read-out: Plant response rating, Foxtail, Giant): 100%
- pest or weed control at 500 g/ha ([3]; pre-emergence, Preemergence, 0 to 100 scale, 0 is no effect, 100 is complete control, read-out: Plant response rating, Foxtail, Giant): 100%
- pest or weed control at 125 g/ha ([4]; post-emergence, Postemergence, 125 g ai/ha, 0 to 100 scale, 0 is no effect, 100 is complete control, read-out: Morningglory plant response rating): 80%
- pest or weed control at 500 g/ha ([4]; post-emergence, Postemergence, visual rating on 0 to 100 scale (0 no effect, 100 complete control), approximately ten days, read-out: Morningglory plant response rating): 100%
- pest or weed control at 500 g/ha ([4]; pre-emergence, Preemergence, 0 to 100 scale, 0 is no effect, 100 is complete control, read-out: Plant response rating, Morningglory): 80%
- Plant response rating, Kochia (kochia (Kochia scoparia); [19]): 95
- Plant response rating, Kochia (kochia (Kochia scoparia); [20]): 98
- Plant response rating, Kochia (kochia (Kochia scoparia); [21]): 98
- Plant response rating, Kochia (kochia (Kochia scoparia); 250 g ai/ha, scale 0 to 100): 98
- pest or weed control at 125 g/ha ([5]; post-emergence, Postemergence, 0 to 100 scale, 0 is no effect, 100 is complete control, read-out: Barnyardgrass plant response rating): 90%
- pest or weed control at 500 g/ha ([5]; post-emergence, Postemergence, visual rating on 0 to 100 scale (0 no effect, 100 complete control), approximately ten days, read-out: Barnyardgrass plant response rating): 100%
- pest or weed control at 125 g/ha ([5]; pre-emergence, Preemergence, 0 to 100 scale (0 no effect, 100 complete control), read-out: Plant response rating, Barnyardgrass): 90%
- pest or weed control at 500 g/ha ([5]; pre-emergence, Preemergence, 0 to 100 scale, 0 is no effect, 100 is complete control, read-out: Plant response rating, Barnyardgrass): 100%
- Plant response rating, Pigweed [6, 19]: 75
- Plant response rating, Pigweed [6, 20]: 95
- Plant response rating, Pigweed [6, 21]: 100
- Plant response rating, Pigweed ([6]; 250 g ai/ha, scale 0 to 100): 100
- Plant response rating, Lambsquarters [7, 19]: 95
- Plant response rating, Lambsquarters [7, 20]: 100
- Plant response rating, Lambsquarters [7, 21]: 100
- Plant response rating, Lambsquarters ([7]; 250 g ai/ha, scale 0 to 100): 100
- plant injury at 125 g/ha ([8]; post-emergence, Postemergence, 0 to 100 scale, 0 is no effect, 100 is complete control, read-out: Wheat plant response rating): 20%
- plant injury at 500 g/ha ([8]; post-emergence, Postemergence, visual rating on 0 to 100 scale (0 no effect, 100 complete control), approximately ten days, read-out: Wheat plant response rating): 30%
- plant injury at 125 g/ha ([8]; pre-emergence, Preemergence, 0 to 100 scale (0 no effect, 100 complete control), read-out: Plant response rating, Wheat): 10%
- plant injury at 500 g/ha ([8]; pre-emergence, Preemergence, 0 to 100 scale, 0 is no effect, 100 is complete control, read-out: Plant response rating, Wheat): 20%
- Plant response rating, Ryegrass, Italian [9, 11]: 10
- Plant response rating, Ryegrass, Italian [9, 12]: 10
- Plant response rating, Ryegrass, Italian [9, 13]: 20
- Plant response rating, Ryegrass, Italian [9, 14]: 20
- Plant response rating, Ryegrass, Italian [9, 15]: 5
- Plant response rating, Ryegrass, Italian [9, 18]: 95
- Plant response rating, Ryegrass, Italian [9, 16]: 100
- Plant response rating, Ryegrass, Italian [9, 17]: 100
- Plant response rating, Crabgrass, Large [10, 19]: 5
- Plant response rating, Crabgrass, Large [10, 20]: 5
- Plant response rating, Crabgrass, Large [10, 21]: 20
- Plant response rating, Crabgrass, Large ([10]; 250 g ai/ha, scale 0 to 100): 60
